# Results published in ChEMBL document CHEMBL2413072, “Synthesis and in vitro anticancer studies of novel C-2 arylidene congeners of lantadenes” (2013).
# What was measured:
# Assay type in all cases: functional
# OVCAR-8 [1] = assay: Growth inhibition of human OVCAR8 cells assessed as cell growth at 10^-8 M by sulforhodamine B assay; settings: read-out: Activity
# 786-0 = assay: Growth inhibition of human 786-0 cells assessed as cell growth at 10^-7 M by sulforhodamine B assay; settings: read-out: Activity
# SF-539 = assay: Growth inhibition of human SF539 cells assessed as cell growth at 10^-4 M by sulforhodamine B assay; settings: read-out: Activity
# MDA-MB-435 [2] = assay: Growth inhibition of human MDA-MB-435 cells by sulforhodamine B assay
# M14 = assay: Growth inhibition of human M14 cells assessed as cell growth at 10^-6 M by sulforhodamine B assay; settings: read-out: Activity
# BT-549 = assay: Growth inhibition of human BT549 cells by sulforhodamine B assay
# SR = assay: Growth inhibition of human SR cells assessed as cell growth at 10^-7 M by sulforhodamine B assay; settings: read-out: Activity
# T47D = assay: Growth inhibition of human T47D cells assessed as cell growth at 10^-4 M by sulforhodamine B assay; settings: read-out: Activity
# COLO 205 = assay: Growth inhibition of human COLO205 cells assessed as cell growth at 10^-6 M by sulforhodamine B assay; settings: read-out: Activity
# OVCAR-3 = assay: Growth inhibition of human OVCAR3 cells by sulforhodamine B assay
# CAKI-1 = assay: Growth inhibition of human CAKI-1 cells assessed as cell growth at 10^-7 M by sulforhodamine B assay; settings: read-out: Activity
# U-251 [3] = assay: Growth inhibition of human U251 cells assessed as cell growth at 10^-6 M by sulforhodamine B assay; settings: read-out: Activity
# NCI-H23 = assay: Growth inhibition of human NCI-H23 cells by sulforhodamine B assay
# TK-10 = assay: Growth inhibition of human TK10 cells assessed as cell growth at 10^-6 M by sulforhodamine B assay; settings: read-out: Activity
# NCI-H226 [4] = assay: Growth inhibition of human NCI-H226 cells assessed as cell growth at 10^-6 M by sulforhodamine B assay; settings: read-out: Activity
# RXF 393 [5] = assay: Growth inhibition of human RXF393 cells by sulforhodamine B assay
# UACC-62 [6] = assay: Growth inhibition of human UACC62 cells assessed as cell growth at 10^-4 M by sulforhodamine B assay; settings: read-out: Activity
# UACC-62 [7] = assay: Growth inhibition of human UACC62 cells assessed as cell growth at 10^-8 M by sulforhodamine B assay; settings: read-out: Activity
# HCT-15 = assay: Growth inhibition of human HCT15 cells assessed as cell growth at 10^-4 M by sulforhodamine B assay; settings: read-out: Activity
# [8] = Growth inhibition of human HCC2998 cells by sulforhodamine B assay
# OVCAR-8 [9] = assay: Growth inhibition of human OVCAR8 cells assessed as cell growth at 10^-6 M by sulforhodamine B assay; settings: read-out: Activity
# NCI-H522 = assay: Growth inhibition of human NCI-H522 cells by sulforhodamine B assay
# SNB-19 = assay: Growth inhibition of human SNB19 cells by sulforhodamine B assay
# PC-3 [10] = assay: Growth inhibition of human PC3 cells by sulforhodamine B assay
# HOP-62 = assay: Growth inhibition of human HOP62 cells by sulforhodamine B assay
# SNB-75 [11] = assay: Growth inhibition of human SNB75 cells assessed as cell growth at 10^-6 M by sulforhodamine B assay; settings: read-out: Activity
# SNB-75 [12] = assay: Growth inhibition of human SNB75 cells assessed as cell growth at 10^-8 M by sulforhodamine B assay; settings: read-out: Activity
# [13] = Growth inhibition of human Hs 578T cells assessed as cell growth at 10^-4 M by sulforhodamine B assay; settings: read-out: Activity
# OVCAR-5 = assay: Growth inhibition of human OVCAR5 cells assessed as cell growth at 10^-7 M by sulforhodamine B assay; settings: read-out: Activity
# NCI-H226 [14] = assay: Growth inhibition of human NCI-H226 cells assessed as cell growth at 10^-7 M by sulforhodamine B assay; settings: read-out: Activity
# [15] = Growth inhibition of human Hs 578T cells assessed as cell growth at 10^-8 M by sulforhodamine B assay; settings: read-out: Activity
# RXF 393 [16] = assay: Growth inhibition of human RXF393 cells assessed as cell growth at 10^-8 M by sulforhodamine B assay; settings: read-out: Activity
# U-251 [17] = assay: Growth inhibition of human U251 cells by sulforhodamine B assay
# MDA-MB-435 [18] = assay: Growth inhibition of human MDA-MB-435 cells assessed as cell growth at 10^-8 M by sulforhodamine B assay; settings: read-out: Activity
# PC-3 [19] = assay: Growth inhibition of human PC3 cells assessed as cell growth at 10^-7 M by sulforhodamine B assay; settings: read-out: Activity
# SK-MEL-2 = assay: Growth inhibition of human SK-MEL-2 cells assessed as cell growth at 10^-6 M by sulforhodamine B assay; settings: read-out: Activity
# A498 = assay: Growth inhibition of human A498 cells by sulforhodamine B assay
# [20] = read-out: LC50 (the source's name)
# [21] = read-out: pLC50 (the source's name) (converted)
smiles,measurement,setting,value
CC(C)=CC(=O)O[C@@H]1CC(C)(C)C[C@H]2C3=CC[C@@H]4[C@@]5(C)CCC(=O)C(C)(C)[C@@H]5CC[C@@]4(C)[C@]3(C)CC[C@@]12C(=O)O,growth at 0.01 µM,OVCAR-8 [1],95%
same,growth at 0.1 µM,786-0,99%
same,growth at 100 µM,SF-539,-50%
same,GI50,MDA-MB-435 [2]; read-out: GI50,6.22 µM
same,CC50,MDA-MB-435 [2]; [20],> 100 µM
same,TGI,MDA-MB-435 [2]; read-out: TGI,> 100 µM
same,GI50,MDA-MB-435 [2]; read-out: pGI50 (converted),6.17 µM
same,CC50,MDA-MB-435 [2]; [21],> 100 µM
same,TGI,MDA-MB-435 [2]; read-out: pTGI (converted),> 100 µM
same,growth at 1 µM,M14,87%
same,GI50,BT-549; read-out: GI50,4.79 µM
same,CC50,BT-549; [20],> 100 µM
same,TGI,BT-549; read-out: TGI,25 µM
same,GI50,BT-549; read-out: pGI50 (converted),4.79 µM
same,CC50,BT-549; [21],> 100 µM
same,TGI,BT-549; read-out: pTGI (converted),25.1 µM
same,growth at 0.1 µM,SR,99%
same,growth at 100 µM,T47D,23%
same,growth at 1 µM,COLO 205,103%
same,GI50,OVCAR-3; read-out: GI50,4.08 µM
same,CC50,OVCAR-3; [20],59.1 µM
same,TGI,OVCAR-3; read-out: TGI,19 µM
same,GI50,OVCAR-3; read-out: pGI50 (converted),4.07 µM
same,CC50,OVCAR-3; [21],58.9 µM
same,TGI,OVCAR-3; read-out: pTGI (converted),19.1 µM
same,growth at 0.1 µM,CAKI-1,93%
same,growth at 1 µM,U-251 [3],74%
same,GI50,NCI-H23; read-out: GI50,3.96 µM
same,CC50,NCI-H23; [20],> 100 µM
same,TGI,NCI-H23; read-out: TGI,51.9 µM
same,GI50,NCI-H23; read-out: pGI50 (converted),3.98 µM
same,CC50,NCI-H23; [21],> 100 µM
same,TGI,NCI-H23; read-out: pTGI (converted),52.5 µM
same,growth at 1 µM,TK-10,98%
same,growth at 1 µM,NCI-H226 [4],81%
same,GI50,RXF 393 [5]; read-out: GI50,3.31 µM
same,CC50,RXF 393 [5]; [20],63.5 µM
same,TGI,RXF 393 [5]; read-out: TGI,16.3 µM
same,GI50,RXF 393 [5]; read-out: pGI50 (converted),3.31 µM
same,CC50,RXF 393 [5]; [21],63.1 µM
same,TGI,RXF 393 [5]; read-out: pTGI (converted),16.2 µM
same,growth at 100 µM,UACC-62 [6],-80%
same,growth at 0.01 µM,UACC-62 [7],102%
same,growth at 100 µM,HCT-15,-34%
same,GI50,"[8]; HCC 2998, read-out: GI50",3.05 µM
same,CC50,"[8]; HCC 2998, read-out: LC50 (the source's name)",58.6 µM
same,TGI,"[8]; HCC 2998, read-out: TGI",13.4 µM
same,GI50,"[8]; HCC 2998, read-out: pGI50 (converted)",3.02 µM
same,CC50,"[8]; HCC 2998, read-out: pLC50 (the source's name) (converted)",58.9 µM
same,TGI,"[8]; HCC 2998, read-out: pTGI (converted)",13.5 µM
same,growth at 1 µM,OVCAR-8 [9],79%
same,GI50,NCI-H522; read-out: GI50,3.14 µM
same,CC50,NCI-H522; [20],> 100 µM
same,TGI,NCI-H522; read-out: TGI,29.4 µM
same,GI50,NCI-H522; read-out: pGI50 (converted),3.16 µM
same,CC50,NCI-H522; [21],> 100 µM
same,TGI,NCI-H522; read-out: pTGI (converted),29.5 µM
same,GI50,SNB-19; read-out: GI50,4.25 µM
same,CC50,SNB-19; [20],> 100 µM
same,TGI,SNB-19; read-out: TGI,> 100 µM
same,GI50,SNB-19; read-out: pGI50 (converted),4.27 µM
same,CC50,SNB-19; [21],> 100 µM
same,TGI,SNB-19; read-out: pTGI (converted),> 100 µM
same,GI50,PC-3 [10]; read-out: GI50,1.55 µM
same,CC50,PC-3 [10]; [20],> 100 µM
same,TGI,PC-3 [10]; read-out: TGI,89.1 µM
same,GI50,PC-3 [10]; read-out: pGI50 (converted),1.55 µM
same,CC50,PC-3 [10]; [21],> 100 µM
same,TGI,PC-3 [10]; read-out: pTGI (converted),89.1 µM
same,GI50,HOP-62; read-out: GI50,9.26 µM
same,LC50 (concentration killing 50% of cells),HOP-62; read-out: LC50,> 100 µM
same,TGI,HOP-62; read-out: TGI,49.8 µM
same,GI50,HOP-62; read-out: pGI50 (converted),9.33 µM
same,LC50 (concentration killing 50% of cells),HOP-62; read-out: pLC50 (converted),> 100 µM
same,TGI,HOP-62; read-out: pTGI (converted),50.1 µM
same,growth at 1 µM,SNB-75 [11],87%
same,growth at 0.01 µM,SNB-75 [12],90%
same,growth at 100 µM,[13],-10%
same,growth at 0.1 µM,OVCAR-5,91%
same,growth at 0.1 µM,NCI-H226 [14],87%
same,growth at 0.01 µM,[15],96%
same,growth at 0.01 µM,RXF 393 [16],97%
same,GI50,U-251 [17]; read-out: GI50,2.9 µM
same,CC50,U-251 [17]; [20],> 100 µM
same,TGI,U-251 [17]; read-out: TGI,20.7 µM
same,GI50,U-251 [17]; read-out: pGI50 (converted),2.88 µM
same,CC50,U-251 [17]; [21],> 100 µM
same,TGI,U-251 [17]; read-out: pTGI (converted),20.9 µM
same,growth at 0.01 µM,MDA-MB-435 [18],99%
same,growth at 0.1 µM,PC-3 [19],86%
same,growth at 1 µM,SK-MEL-2,85%
same,GI50,A498; read-out: GI50,1.59 µM
same,CC50,A498; [20],> 100 µM
same,TGI,A498; read-out: TGI,14.2 µM
same,GI50,A498; read-out: pGI50 (converted),1.58 µM
same,CC50,A498; [21],> 100 µM
same,TGI,A498; read-out: pTGI (converted),14.1 µM
